56 compounds from patent US7807676B2, “Diketo-Piperazine and Piperidine derivatives as antiviral agents” (priority 2006, dated 2010) can be followed below.

The EC50 is the concentration that produces a half-maximal response.

Bounds are passed on as bounds.

The subject of the experiment is HIV-1 single-round infectious reporter virus. Put plainly: Single-round infectious HIV-1 luciferase reporter virus infection of HeLa CD4 cells (antiviral EC50). It is filed as cell-based. Conditions: Human immunodeficiency virus 1, HeLa, read-out: EC50 Group from Table 3. The method, then: • Virus production—Human embryonic Kidney cell line, 293T, was propagated in Dulbecco's Modified Eagle Medium (Invitrogen, Carlsbad, Calif.) containing 10% fetal Bovine serum (FBS, Sigma, St. Louis, Mo.). • Virus infection—Human epithelial cell line, HeLa, expressing the HIV-1 receptor CD4 was propagated in Dulbecco's Modified Eagle Medium (Invitrogen, Carlsbad, Calif.) containing 10% fetal Bovine serum (FBS, Sigma, St. Louis, Mo.) and supplemented with 0.2 mg/mL Geneticin (Invitrogen, Carlsbad, Calif.). Virus-Single-round infectious reporter virus was produced by co-transfecting human embryonic Kidney 293 cells with an HIV-1 envelope DNA expression vector and a proviral cDNA containing an envelope deletion mutation and the luciferase reporter gene inserted in place of HIV-1 nef sequences (Chen et al, Ref. 41). Transfections were performed using lipofectAMINE PLUS reagent as described by the manufacturer (Invitrogen, Carlsbad, Calif.). Experiment • 1. HeLa CD4 cells were plated in 96 well plates at a cell density of 1×10^4 cells per well in 100 μl Dulbecco's Modified Eagle Medium containing 10% fetal Bovine serum and incubated overnight. • 2. Compound was added in a 2 μl dimethylsulfoxide solution, so that the final assay concentration would be ≦10 μM. • 3. 100 μl of single-round infectious reporter virus in Dulbecco's Modified Eagle Medium was then added to the plated cells and compound at an approximate multiplicity of infection (MOI) of 0.01, resulting in a final volume of 200 μl per well. • 4. Virally-infected cells were incubated at 37 degrees Celsius, in a CO2 incubator, and harvested 72 h after infection. • 5. Viral infection was monitored by measuring luciferase expression from viral DNA in the infected cells using a luciferase reporter gene assay kit, as described by the manufacturer (Roche Molecular Biochemicals, Indianapolis, Ind.). Infected cell supernatants were removed and 50 μl of lysis buffer was added per well. After 15 minutes, 50 μl of freshly-reconstituted luciferase assay reagent was added per well. Luciferase activity was then quantified by measuring luminescence using a Wallac microbeta scintillation counter. • 6. The percent inhibition for each compound was calculated by quantifying the level of luciferase expression in cells infected in the presence of each compound as a percentage of that observed for cells infected in the absence of compound and subtracting such a determined value from 100. • 7. An EC50 provides a method for comparing the antiviral potency of the compounds of this disclosure. The effective concentration for fifty percent inhibition (EC50) was calculated with the Microsoft Excel Xlfit curve fitting software. For each compound, curves were generated from percent inhibition calculated at 10 different concentrations by using a four parameter logistic model (model 205). Table 3 is the key for the data in Table 4. Results
`COc1cnc(-n2ccnn2)c2[nH]cc(C(=O)C(=O)N3CCN(c4nnnn4-c4ccccc4)CC3)c12` [A-1]: the concentration for a half-maximal effect (EC50) is less than 0.5 µM. In the case of `O=C(C(=O)N1CCN(c2ccc(-c3ccccc3)cc2)CC1)c1c[nH]c2c(-n3ccnn3)ncc(F)c12` [A-2], the EC50 is more than 0.5 µM. As for `O=C(C(=O)N1CCN(c2cccc(-c3ccccc3)c2)CC1)c1c[nH]c2c(-n3ccnn3)ncc(F)c12` [A-3], the EC50 was less than 0.5 µM. With `O=C(C(=O)N1CCN(c2ccccc2-c2ccccc2)CC1)c1c[nH]c2c(-n3ccnn3)ncc(F)c12` [A-4], the EC50 is less than 0.5 µM. Regarding `O=C(C(=O)N1CCN(c2nnnn2-c2ccccc2)CC1)c1c[nH]c2c(-n3ccnn3)ncc(F)c12` [A-5], the EC50 is less than 0.5 µM.

With `O=C(C(=O)N1CCN(c2cc(O)nnc2-c2ccccc2)CC1)c1c[nH]c2c(-n3ccnn3)ncc(F)c12` [A-6], the half-maximal effective concentration (EC50) was less than 0.5 µM. Turning to `O=C(C(=O)N1CCN(c2nccc(-c3ccccc3)n2)CC1)c1c[nH]c2c(-n3ccnn3)ncc(F)c12` [A-7], the EC50 is less than 0.5 µM. In the case of `O=C(C(=O)N1CCN(c2nc(-c3ccccc3)cs2)CC1)c1c[nH]c2c(-n3ccnn3)ncc(F)c12` [A-8], the EC50 is less than 0.5 µM. On to `COc1cnc(-n2cnc(C)n2)c2[nH]cc(C(=O)C(=O)N3CCN(c4nnnn4-c4ccccc4)CC3)c12` [A-9], for which the EC50 is less than 0.5 µM.

Regarding `O=C(C(=O)N1CCN(c2nnnn2-c2ccccc2)CC1)c1c[nH]c2ncccc12` [A-10], the EC50 was less than 0.5 µM. Turning to `COc1ccnc2[nH]cc(C(=O)C(=O)N3CCN(c4nnnn4-c4ccccc4)CC3)c12` [A-11], the EC50 is less than 0.5 µM. Turning to `COc1ncc(OC)c2c(C(=O)C(=O)N3CCN(c4nnnn4-c4ccccc4)CC3)c[nH]c12` [A-12], the EC50 was less than 0.5 µM. With `O=C(C(=O)N1CCN(c2nsnc2-c2ccccc2)CC1)c1c[nH]c2c(-n3ccnn3)ncc(F)c12` [A-13] the figure was less than 0.5 µM; with `C[C@@H]1CN(c2nnnn2-c2ccccc2)CCN1C(=O)C(=O)c1c[nH]c2c(-n3ccnn3)ncc(F)c12` [A-14], less than 0.5 µM. With `C[C@H]1CN(c2nnnn2-c2ccccc2)CCN1C(=O)C(=O)c1c[nH]c2c(-n3ccnn3)ncc(F)c12` [A-15] the figure was less than 0.5 µM; with `O=C(C(=O)N1CCC(c2nc3ccccc3n2-c2ccccc2)CC1)c1c[nH]c2c(-n3ccnn3)ncc(F)c12` [A-16], less than 0.5 µM. Turning to `O=C(C(=O)N1CCN(c2nccnc2-c2ccccc2)CC1)c1c[nH]c2c(-n3ccnn3)ncc(F)c12` [A-17], the EC50 was less than 0.5 µM. Regarding `O=C(C(=O)N1CCN([C@H]2CCCC[C@H]2c2ccccc2)CC1)c1c[nH]c2c(-n3ccnn3)ncc(F)c12` [A-19], the 50% effective concentration (EC50) was less than 0.5 µM.

In the case of `O=C(C(=O)N1CCN(c2nncn2-c2ccccc2)CC1)c1c[nH]c2c(-n3ccnn3)ncc(F)c12` [A-20], the concentration giving a half-maximal response (EC50) is less than 0.5 µM. With `O=C(C(=O)N1CCC(N2C(=O)CC2c2ccccc2)CC1)c1c[nH]c2c(-n3ccnn3)ncc(F)c12` (centres unmarked) [A-21] the figure was less than 0.5 µM. As to `O=C(C(=O)N1CCN(c2nnc(O)n2-c2ccccc2)CC1)c1c[nH]c2c(-n3ccnn3)ncc(F)c12` [A-22], the EC50 is less than 0.5 µM.

Take `O=C(C(=O)N1CCN(N2C(=O)CC2c2ccccc2)CC1)c1c[nH]c2c(-n3ccnn3)ncc(F)c12` (centres unmarked) [A-23]: the 50% effective concentration (EC50) was more than 0.5 µM.

Take `O=C(C(=O)N1CCC(N2CCC2c2ccccc2)CC1)c1c[nH]c2c(-n3ccnn3)ncc(F)c12` (centres unmarked) [A-24]: the concentration giving a half-maximal response (EC50) was more than 0.5 µM.

As for `COC(=O)c1ccc(F)c2c(C(=O)C(=O)N3CCN(c4nnnn4-c4ccccc4)CC3)c[nH]c12` [A-25], the concentration giving a half-maximal response (EC50) was less than 0.5 µM. With `C[C@@H]1CN(c2nnnn2-c2ccccc2)[C@@H](C)CN1C(=O)C(=O)c1c[nH]c2c(-n3ccnn3)ncc(F)c12` [A-26] the figure was less than 0.5 µM; with `O=C(C(=O)N1CCN(c2nnnn2-c2ccccc2)CC1)c1c[nH]c2cccc(F)c12` [A-27], less than 0.5 µM. Turning to `O=C(C(=O)N1CCN(c2nc(-c3ccccc3)ns2)CC1)c1c[nH]c2c(-n3ccnn3)ncc(F)c12` [A-28], the 50% effective concentration (EC50) was less than 0.5 µM. With `COc1cnc(-n2cnc(C)n2)c2[nH]cc(C(=O)C(=O)N3CCN(c4nnnn4-c4ccccc4)C[C@H]3C)c12` [A-30] the figure was less than 0.5 µM; with `COc1cnc(-n2cnc(C)n2)c2[nH]cc(C(=O)C(=O)N3CCN(c4nnnn4-c4ccccc4)C[C@@H]3C)c12` [A-31], less than 0.5 µM; with `COc1cnc(-n2cnc(C)n2)c2[nH]cc(C(=O)C(=O)N3C[C@H](C)N(c4nnnn4-c4ccccc4)C[C@H]3C)c12` [A-32], less than 0.5 µM. Consider `O=C(C(=O)N1CCC(c2nnc(-c3ccccc3)o2)CC1)c1c[nH]c2c(-n3ccnn3)ncc(F)c12` [A-33], for which the 50% effective concentration (EC50) is more than 0.5 µM. As for `O=C(C(=O)N1CCC(c2nc(-c3cccnc3)no2)CC1)c1c[nH]c2c(-n3ccnn3)ncc(F)c12` [A-34], the 50% effective concentration (EC50) is more than 0.5 µM.

As to `Cc1cc(N2CCN(C(=O)C(=O)c3c[nH]c4c(-n5ccnn5)ncc(F)c34)CC2)nc(-c2ccccc2O)n1` [A-35], the EC50 is less than 0.5 µM. With `O=C(C(=O)N1CCC(c2c(-c3ccccc3)[nH]c3ccccc23)CC1)c1c[nH]c2c(-n3ccnn3)ncc(F)c12` [A-36] the figure was more than 0.5 µM. As to `O=C(C(=O)N1CCN(c2nc3ccccc3n2-c2ccccc2)CC1)c1c[nH]c2c(-n3ccnn3)ncc(F)c12` [A-37], the EC50 is less than 0.5 µM.

On to `COc1cnc(-n2cnc(C)n2)c2[nH]cc(C(=O)C(=O)N3CCN(c4nc5ccccc5n4-c4ccccc4)CC3)c12` [A-38], for which the concentration for a half-maximal effect (EC50) is less than 0.5 µM. `COc1cnc(-n2cnc(C)n2)c2[nH]cc(C(=O)C(=O)N3CCN(C4=NCCCN4c4ccccc4)CC3)c12` [A-39]: the EC50 is more than 0.5 µM. With `O=C(C(=O)N1CCN(C2=NCCCN2c2ccccc2)CC1)c1c[nH]c2c(-n3ccnn3)ncc(F)c12` [A-40] the figure was more than 0.5 µM. With `O=C(C(=O)N1CCN(c2cccc(C3CCCCC3)c2)CC1)c1c[nH]c2c(-n3ccnn3)ncc(F)c12` [A-41] the figure was more than 0.5 µM; with `O=C(C(=O)N1CCN(c2ccccc2C2CCCCC2)CC1)c1c[nH]c2c(-n3ccnn3)ncc(F)c12` [A-42], more than 0.5 µM; with `O=C(C(=O)N1CCN(c2nncn2-c2ccccc2)CC1)c1c[nH]c2c(-n3ccnn3)ncc(O)c12` [A-43], less than 0.5 µM. As to `COc1cnc(-n2cnc(C)n2)c2[nH]cc(C(=O)C(=O)N3CCN(c4nncn4-c4ccccc4)CC3)c12` [A-44], the EC50 is less than 0.5 µM. In the case of `C[C@@H]1CN(C(=O)C(=O)c2c[nH]c3c(-n4ccnn4)ncc(F)c23)CCN1c1nnnn1-c1ccccc1` [A-45], the EC50 is less than 0.5 µM.

Turning to `COc1cnc(-n2cnc(C)n2)c2[nH]cc(C(=O)C(=O)N3CCN(c4nnnn4-c4ccccc4)[C@H](C)C3)c12` [A-46], the concentration giving a half-maximal response (EC50) is less than 0.5 µM. `Cc1nnc(N2CCN(C(=O)C(=O)c3c[nH]c4c(-n5ccnn5)ncc(F)c34)CC2)n1-c1ccccc1` [A-47]: the EC50 was less than 0.5 µM. For the compound `Cc1cc(N2CCN(C(=O)C(=O)c3c[nH]c4c(-n5ccnn5)ncc(F)c34)CC2)n(-c2ccccc2)n1` [A-48], the EC50 is less than 0.5 µM. With `O=C(C(=O)N1CCN(c2nccn2-c2ccccc2)CC1)c1c[nH]c2c(-n3ccnn3)ncc(F)c12` [A-49], the half-maximal effective concentration (EC50) was less than 0.5 µM. For `CCOc1ccccc1N1CCN(C(=O)C(=O)c2c[nH]c3c(-n4ccnn4)ncc(F)c23)CC1` [A-50], the half-maximal effective concentration (EC50) was less than 0.5 µM.

Turning to `O=C(C(=O)N1CCN(c2ncccc2C(F)(F)F)CC1)c1c[nH]c2c(-n3ccnn3)ncc(F)c12` [A-51], the EC50 was less than 0.5 µM.

Consider `O=C(C(=O)N1CCN(c2ccccc2C(F)(F)F)CC1)c1c[nH]c2c(-n3ccnn3)ncc(F)c12` [A-52], for which the half-maximal effective concentration (EC50) was more than 0.5 µM. Turning to `COc1cnc(Br)c2[nH]cc(C(=O)C(=O)N3CCN(c4nncn4-c4ccccc4)CC3)c12` [A-53], the EC50 is less than 0.5 µM. With `COc1cnc(-n2cnc(C)n2)c2[nH]cc(C(=O)C(=O)N3CCN(c4nccn4-c4ccccc4)CC3)c12` [A-54] the figure was less than 0.5 µM; with `O=C(C(=O)N1CCN(C2=NS(=O)(=O)N=C2c2ccccc2)CC1)c1c[nH]c2c(-n3ccnn3)ncc(F)c12` [A-55], less than 0.5 µM.

For `C[C@@H]1CN(C(=O)C(=O)c2c[nH]c3c(Cl)ncc(O)c23)CCN1c1nnnn1-c1ccccc1` [A-56], the concentration for a half-maximal effect (EC50) was more than 0.5 µM. Take `COc1cnc(-c2cnccn2)c2[nH]cc(C(=O)C(=O)N3CCN(c4nncn4-c4ccccc4)CC3)c12` [A-57]: the concentration giving a half-maximal response (EC50) was less than 0.5 µM. With `COc1cnc(-n2ccnn2)c2[nH]cc(C(=O)C(=O)N3C(C)CN(c4nnnn4-c4ccccc4)CC3C)c12` (centres unmarked) [A-58] the figure was less than 0.5 µM.
